Reference: paper PMC6627374, “Effects of the Pentapeptide P33 on Memory and Synaptic Plasticity in APP/PS1 Transgenic Mice: A Novel Mechanism Presenting the Protein Fe65 as a Target” (International Journal of Molecular Sciences, 2019)

Biological target: T1, Fe65-WW domain (WW domain of Fe65) (Homo sapiens, UniProt O00213)
T1 construct: made in house; host or cells: chemical solid-phase peptide synthesis (Fmoc, Rink Amide AM resin); no expression host
T1 sequence (O00213 253-285 limits assumed): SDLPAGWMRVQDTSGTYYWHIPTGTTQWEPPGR
Assay: ITC binding to Fe65-WW
Set-up: species or system human and mouse (WW domain identical)
Conditions: 310 K, PBS pH 7.4, Fe65-WW 83.5 μM in cell, PPPPP 1.056 mM in syringe (control)
Procedure: Synthesis of acetyl-Fe65-WW, acetyl-Pin1-WW, and the control PPPPP (structures involved in Figure 2) was carried out on a Rink Amide AM (0.3 mmol∙g^−1) resin using Fmoc chemistry and activation with HATU in the presence of DIPEA. Cleavage was achieved by a treatment with TFA/H2O/triisopropylsilane/1,4-dithio-DL-threitol/phenol (90:5:3:1:1) at room temperature (RT). TFA was removed in vacuo, the peptides were then precipitated using cold, dry diethyl-ether, dissolved in ACN/H2O and lyophilized.
Isothermal titrations were performed using a Microcal VP-ITC (Malvern Instruments, Malvern, UK) microcalorimeter. Binding experiments were carried out in degassed phosphate-buffered saline (PBS) at pH 7.4. The concentrations of Fe65-WW and Pin1-WW were normalized for the peptide contents. In one titration experiment, 10-μL portions of the ligand-containing solution (P33 or PPPPP) were injected from a computer-controlled 300-μL microsyringe at intervals of 300 s into the solution of the WW domain (Fe65-WW or Pin1-WW), dissolved in the same buffer as for the ligand. The rev of the microsyringe was set to 307 rpm. Measurements were repeated twice at 310 K. The starting concentrations of Fe65-WW and Pin1-WW in the cell were 83.5 and 81.4 μM, respectively, and the concentrations of the stock solutions containing P33 or PPPPP in the syringe were 1.006 and 1.056 mM, respectively. Control experiments were performed by injecting P33 or PPPPP into the cell containing plain buffer without the WW domain, with results achieved via subtracting the dilution heats from those measured in the presence of the WW domain.

PPPPP [control pentapeptide PPPPP, reference compound]
binding to Fe65-WW (in words): no binding between the Fe65-WW and the pentapeptide could be observed
